# According to patent US8604028B2, “Furopyridinyl-substituted 1,4-dihydropyridine derivatives and methods of use thereof” (Bayer Intellectual Property GmbH, priority 2009, dated 2013):
# Target: N-terminally His6-tagged recombinant kinase domain of the human c-Met (amino acids 960-1390) (Homo sapiens (Human), UniProt P08581)
# Assay: c-Met Receptor Tyrosine Kinase Homogeneous Time-Resolved Fluorescence Assay (Alternative Format)
# Format: biochemical
# Settings: c-Met kinase inhibition, HTRF format, ATP 10 μM
# Source text: c-Met Receptor Tyrosine Kinase Homogeneous Time-Resolved Fluorescence Assay (Alternative Format):
# The N-terminally His6-tagged recombinant kinase domain of the human c-Met (amino acids 960-1390), expressed in insect cells (SF21) and purified by Ni-NTA affinity chromatography and consecutive size exclusion chromatography (Superdex 200), is used. Alternatively, commercially available c-Met (Millipore) can be used. As substrate for the kinase reaction, the biotinylated poly-Glu,Tyr (4:1) copolymer (#61GT0BLC, Cis Biointernational, Marcoule, France) is used.
# For the assay, 50 nL of a 100-fold concentrated solution of the test compound in DMSO is pipetted into a black low-volume 384-well microtiter plate (Greiner Bio-One, Frickenhausen, Germany). […]
# The resulting mixture is incubated for 1 h at 22° C. to allow the binding of the biotinylated phosphorylated peptide to the streptavidine-XLent and the PT66-Eu-chelate. Subsequently, the amount of phosphorylated substrate is evaluated by measurement of the resonance energy transfer from the PT66-Eu-chelate to the streptavidine-XLent. Therefore, the fluorescence emissions at 620 nm and 665 nm after excitation at 350 nm are measured in an HTRF reader, e.g. Rubystar (BMG Lab-technologies, Offenburg, Germany) or Viewlux (Perkin-Elmer). […]
# Chain of N-terminally His6-tagged recombinant kinase domain of the human c-Met (amino acids 960-1390) (P08581 960-1390): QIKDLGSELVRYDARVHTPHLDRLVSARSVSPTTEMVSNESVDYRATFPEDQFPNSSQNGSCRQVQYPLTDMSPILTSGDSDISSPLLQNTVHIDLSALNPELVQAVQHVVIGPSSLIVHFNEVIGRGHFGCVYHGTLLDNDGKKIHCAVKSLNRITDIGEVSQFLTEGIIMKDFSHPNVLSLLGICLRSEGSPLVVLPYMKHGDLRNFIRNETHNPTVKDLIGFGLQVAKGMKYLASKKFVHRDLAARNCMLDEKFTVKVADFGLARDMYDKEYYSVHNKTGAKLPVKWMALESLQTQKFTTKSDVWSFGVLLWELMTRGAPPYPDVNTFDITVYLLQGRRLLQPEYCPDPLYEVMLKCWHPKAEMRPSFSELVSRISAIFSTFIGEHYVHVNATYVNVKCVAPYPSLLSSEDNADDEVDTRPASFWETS
smiles,measurement,value
N#CC1=C(C(F)F)NC(C(F)F)=C(C#N)C1c1cc2c(N)nccc2o1 [Example 18],IC50,1030 nM
